Measured values: US10821115B2, “Compounds that inhibit Mcl-1 protein” (priority 2017, dated 2020)

What was measured:
[1] = biological target: recombinant human Mcl-1 (residues 171-327) / Bim interaction (Homo sapiens (Human), UniProt Q07820); experiment: biochemical; format: binding; settings: 0.1 nM Mcl-1(171-327), 0.05 nM biotin-Bim (51-76); read-out: Mcl-1 HTRF IC50
[2] = system: human multiple myeloma cell line, OPM-2; experiment: Cell viability assay (OPM-2 10 FBS), CellTiter-Glo; format: cell-based; settings: Homo sapiens, OPM-2, 16 h, read-out: OPM-2 10% FBS IC50 IP, OPM-2 cells, 10% FBS, 16 h incubation
Summary of the method: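 Steps: plate cells at 3000/well in 10% FBS growth medium, add serially diluted compound, incubate 16 h at 37 °C with 5% CO2, add detection reagent and read luminescence after 25 min. A 4-parameter logistic model gives IC50.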

recombinant human Mcl-1 (residues 171-327) / Bim interaction, sequence (Q07820 171-327): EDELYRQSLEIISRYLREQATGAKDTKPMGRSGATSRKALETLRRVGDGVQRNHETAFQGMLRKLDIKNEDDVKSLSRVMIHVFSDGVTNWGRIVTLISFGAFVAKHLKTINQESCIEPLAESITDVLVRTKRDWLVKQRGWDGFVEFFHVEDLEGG

SMILES | IC50 [1] | IC50 [2]
CO[C@]1(CN2CCN3CCOC[C@@H]3C2)/C=C/[C@H](C)[C@H](C)CS(=O)(=O)NC(=O)c2ccc3c(c2)N(C[C@@H]2CC[C@H]21)C[C@@]1(CCCc2cc(Cl)ccc21)CO3 [Example 157, (1S,3′R,6′R,7′R,8′E,10′S,11′S)-6-chloro-7′-((9aS)-hexahydropyrazino[2,1-c][1,4]oxazin-8(1H)-ylmethyl)-7′-methoxy-10′,11′-dimethyl-3,4-dihydro-2H,15′H-spiro[naphthalene-1,22′-[20]oxa[13]thia[1,14]diazatetracyclo [14.7.2.0~3,6~.0~19,24~]pentacosa[8,16,18,24]tetraen]-15′-one 13′,13′-dioxide] | 0.126 nM | 121 nM
CO[C@@]1(CN2CCN(C3COC3)CC2)/C=C/[C@H](C)[C@H](C)CS(=O)(=O)NC(=O)c2ccc3c(c2)N(C[C@@H]2CC[C@H]21)C[C@@]1(CCCc2cc(Cl)ccc21)CO3 [Example 158, (1S,3′R,6′R,7′S,8′E,10′S,11′S)-6-chloro-7′-methoxy-10′,11′-dimethyl-7′-((4-(3-oxetanyl)-1-piperazinyl)methyl)-3,4-dihydro-2H,15′H-spiro[naphthalene-1,22′-[20]oxa[13]thia[1,14]diazatetracyclo [14.7.2.0~3,6~.0~19,24~]pentacosa[8,16,18,24]tetraen]-15′-one 13′,13′-dioxide] | 0.092 nM | 18 nM
CO[C@]1(CN2CCN(C3COC3)CC2)/C=C/[C@H](C)[C@H](C)CS(=O)(=O)NC(=O)c2ccc3c(c2)N(C[C@@H]2CC[C@H]21)C[C@@]1(CCCc2cc(Cl)ccc21)CO3 [Example 159, (1S,3′R,6′R,7′R,8′E,10′S,11′S)-6-chloro-7′-methoxy-10′,11′-dimethyl-7′-((4-(3-oxetanyl)-1-piperazinyl)methyl)-3,4-dihydro-2H,15′H-spiro[naphthalene-1,22′-[20]oxa[13]thia[1,14]diazatetracyclo [14.7.2.0~3,6~.0~19,24~]pentacosa[8,16,18,24]tetraen]-15′-one 13′,13′-dioxide] | 0.096 nM | 79 nM
CO[C@]1(CN2CCN(C)CC2)/C=C/[C@H](C)[C@H](C)CS(=O)(=O)NC(=O)c2ccc3c(c2)N(C[C@@H]2CC[C@H]21)C[C@@]1(CCCc2cc(Cl)ccc21)CO3 [Example 160, (1S,3′R,6′R,7′R,8′E,10′S,11′S)-6-chloro-7′-methoxy-10′,11′-dimethyl-7′-((4-methyl-1-piperazinyl)methyl)-3,4-dihydro-2H,15′H-spiro[naphthalene-1,22′-[20]oxa[13]thia[1,14]diazatetracyclo [14.7.2.0~3,6~.0~19,24~]pentacosa[8,16,18,24]tetraen]-15′-one 13′,13′-dioxide] | 0.221 nM | 148 nM
CO[C@]1(CN2CCN3CCCC[C@@H]3C2)/C=C/[C@H](C)[C@H](C)CS(=O)(=O)NC(=O)c2ccc3c(c2)N(C[C@@H]2CC[C@H]21)C[C@@]1(CCCc2cc(Cl)ccc21)CO3 [Example 161, (1S,3′R,6′R,7′R,8′E,10′S,11′S)-6-chloro-7′-methoxy-10′,11′-dimethyl-7′-((9aR)-octahydro-2H-pyrido[1,2-a]pyrazin-2-ylmethyl)-3,4-dihydro-2H,15′H-spiro[naphthalene-1,22′-[20]oxa[13]thia[1,14]diazatetracyclo [14.7.2.0~3,6~.0~19,24~]pentacosa[8,16,18,24]tetraen]-15′-one 13′,13′-dioxide] | 0.094 nM | 113 nM
CO[C@@]1(CN2CC(C)(N(C)C)C2)/C=C/[C@H](C)[C@H](C)CS(=O)(=O)NC(=O)c2ccc3c(c2)N(C[C@@H]2CC[C@H]21)C[C@@]1(CCCc2cc(Cl)ccc21)CO3 [Example 162, (1S,3′R,6′R,7′S,8′E,10′S,11′S)-6-chloro-7′-((3-(dimethylamino)-3-methyl-1-azetidinyl)methyl)-7′-methoxy-10′,11′-dimethyl-3,4-dihydro-2H,15′H-spiro[naphthalene-1,22′-[20]oxa[13]thia[1,14]diazatetracyclo [14.7.2.0~3,6~.0~19,24~]pentacosa[8,16,18,24]tetraen]-15′-one 13′,13′-dioxide] | 0.072 nM | 55 nM
CO[C@@]1(CN2CCN3CCCC[C@@H]3C2)/C=C/[C@H](C)[C@H](C)CS(=O)(=O)NC(=O)c2ccc3c(c2)N(C[C@@H]2CC[C@H]21)C[C@@]1(CCCc2cc(Cl)ccc21)CO3 [Example 163, (1S,3′R,6′R,7′S,8′E,10′S,11′S)-6-chloro-7′-methoxy-10′,11′-dimethyl-7′-((9aR)-octahydro-2H-pyrido[1,2-a]pyrazin-2-ylmethyl)-3,4-dihydro-2H,15′H-spiro[naphthalene-1,22′-[20]oxa[13]thia[1,14]diazatetracyclo [14.7.2.0~3,6~.0~19,24~]pentacosa[8,16,18,24]tetraen]-15′-one 13′,13′-dioxide] | 0.179 nM | 130 nM
C[C@@H]1CS(=O)(=O)NC(=O)c2ccc3c(c2)N(C[C@@H]2CC[C@H]2[C@@](O)(CN2CCN(C4COC4)CC2)/C=C/[C@@H]1C)C[C@@]1(CCCc2cc(Cl)ccc21)CO3 [Example 165, (1S,3′R,6′R,7′R,8′E,10′S,11′S)-6-chloro-7′-hydroxy-10′,11′-dimethyl-7′-((4-(3-oxetanyl)-1-piperazinyl)methyl)-3,4-dihydro-2H,15′H-spiro[naphthalene-1,22′-[20]oxa[13]thia[1,14]diazatetracyclo [14.7.2.0~3,6~.0~19,24~]pentacosa[8,16,18,24]tetraen]-15′-one 13′,13′-dioxide] | 0.19 nM | 182 nM
CCO[C@]1(CN2CCN(C3COC3)CC2)/C=C/[C@H](C)[C@H](C)CS(=O)(=O)NC(=O)c2ccc3c(c2)N(C[C@@H]2CC[C@H]21)C[C@@]1(CCCc2cc(Cl)ccc21)CO3 [Example 166, (1S,3′R,6′R,7′R,8′E,10′S,11′S)-6-chloro-7′-ethoxy-10′,11′-dimethyl-7′-((4-(3-oxetanyl)-1-piperazinyl)methyl)-3,4-dihydro-2H,15′H-spiro[naphthalene-1,22′-[20]oxa[13]thia[1,14]diazatetracyclo [14.7.2.0~3,6~.0~19,24~]pentacosa[8,16,18,24]tetraen]-15′-one 13′,13′-dioxide] | 0.107 nM | 50 nM
COC[C@@H]1[C@@H](C)C/C=C/[C@@](CN2CCN(C3COC3)CC2)(OC)[C@@H]2CC[C@H]2CN2C[C@@]3(CCCc4cc(Cl)ccc43)COc3ccc(cc32)C(=O)NS1(=O)=O [Example 167, (1S,3′R,6′R,7′R,8′E,11′S,12′S)-6-chloro-7′-methoxy-12′-(methoxymethyl)-11′-methyl-7′-((4-(3-oxetanyl)-1-piperazinyl)methyl)-3,4-dihydro-2H,15′H-spiro[naphthalene-1,22′-[20]oxa[13]thia[1,14]diazatetracyclo [14.7.2.0~3,6~.0~19,24~]pentacosa[8,16,18,24]tetraen]-15′-one 13′,13′-dioxide] | 0.086 nM | 52 nM
COC[C@@H]1[C@@H](C)C/C=C/[C@](CN2CCN3CCOC[C@@H]3C2)(OC)[C@@H]2CC[C@H]2CN2C[C@@]3(CCCc4cc(Cl)ccc43)COc3ccc(cc32)C(=O)NS1(=O)=O [Example 168, (1S,3′R,6′R,7′S,8′E,11′S,12′S)-6-chloro-7′-((9aS)-hexahydropyrazino[2,1-c][1,4]oxazin-8(1H)-ylmethyl)-7′-methoxy-12′-(methoxymethyl)-11′-methyl-3,4-dihydro-2H,15′H-spiro[naphthalene-1,22′-[20]oxa[13]thia[1,14]diazatetracyclo [14.7.2.0~3,6~.0~19,24~]pentacosa[8,16,18,24]tetraen]-15′-one 13′,13′-dioxide] | 0.138 nM | 52 nM
COC[C@@H]1[C@@H](C)C/C=C/[C@](CN2CCN3CCCC[C@@H]3C2)(OC)[C@@H]2CC[C@H]2CN2C[C@@]3(CCCc4cc(Cl)ccc43)COc3ccc(cc32)C(=O)NS1(=O)=O [Example 169] | 0.14 nM | 74 nM
COC[C@@H]1[C@@H](C)C/C=C/[C@](CN2CCN(C3COC3)CC2)(OC)[C@@H]2CC[C@H]2CN2C[C@@]3(CCCc4cc(Cl)ccc43)COc3ccc(cc32)C(=O)NS1(=O)=O [Example 170, (1S,3′R,6′R,7′S,8′E,11′S,12′S)-6-chloro-7′-methoxy-12′-(methoxymethyl)-11′-methyl-7′-((4-(3-oxetanyl)-1-piperazinyl)methyl)-3,4-dihydro-2H,15′H-spiro[naphthalene-1,22′-[20]oxa[13]thia[1,14]diazatetracyclo [14.7.2.0~3,6~.0~19,24~]pentacosa[8,16,18,24]tetraen]-15′-one 13′,13′-dioxide] | 0.131 nM | 75 nM
CCO[C@]1(CN2CCN3CCOC[C@@H]3C2)/C=C/C[C@H](C)[C@@H](COC)S(=O)(=O)NC(=O)c2ccc3c(c2)N(C[C@@H]2CC[C@H]21)C[C@@]1(CCCc2cc(Cl)ccc21)CO3 [Example 171, (1S,3′R,6′R,7′R,8′E,11′S,12′S)-6-chloro-7′-ethoxy-7′-((9aS)-hexahydropyrazino[2,1-c][1,4]oxazin-8(1H)-ylmethyl)-12′-(methoxymethyl)-11′-methyl-3,4-dihydro-2H,15′H-spiro[naphthalene-1,22′-[20]oxa[13]thia[1,14]diazatetracyclo [14.7.2.0~3,6~.0~19,24~]pentacosa[8,16,18,24]tetraen]-15′-one 13′,13′-dioxide] | 0.074 nM | 122 nM
COCC(COC)N1CCN(C[C@]2(OC)/C=C/C[C@H](C)[C@@H](COC)S(=O)(=O)NC(=O)c3ccc4c(c3)N(C[C@@H]3CC[C@H]32)C[C@@]2(CCCc3cc(Cl)ccc32)CO4)CC1 [Example 172, (1S,3′R,6′R,7′S,8′E,11′S,12′S)-6-chloro-7′-methoxy-7′-((4-(2-methoxy-1-(methoxymethyl)ethyl)-1-piperazinyl)methyl)-12′-(methoxymethyl)-11′-methyl-3,4-dihydro-2H,15′H-spiro[naphthalene-1,22′-[20]oxa[13]thia[1,14]diazatetracyclo [14.7.2.0~3,6~.0~19,24~]pentacosa[8,16,18,24]tetraen]-15′-one 13′,13′-dioxide] | 0.137 nM | 55 nM
